# From patent publication US20090176288A1, “Methods and Compositions for Butanol Production” (priority 2006, published 2009)
# Where two headings read alike, the source gives them in different places.
# Legend:
# [1] = tested on: BUT-R/1 mutant (ATCC No. PTA-8515); settings: 3 days, 37° C.
# Procedure: (§1) But-R/1 mutant (ATCC No. PTA-8515), a derivative of C. acetobutylicum ATCC 824, was produced via long-term incubation of wild-type C. acetobutylicum 824 in reinforced Clostridium medium (“RCM”) with glucose (0.5%) and butanol (2.5% v/v) under anaerobic conditions at 37° C. When turbidity developed, the bacterial suspension was spread onto RCM agar with 2.5% butanol. […] Mutants were purified twice using RCM agar containing 2.5% of butanol. […] Cells were grown for 3 days in RCM medium in an anaerobic jar at 37° C. Optical density of cell suspensions was measured at 600 nm spectrophotometrically.
# [2] = tested on: Clostridium acetobutylicum ATCC 824 (wild type); settings: 3 days, 37° C.
# Procedure: as §1
# [3] = tested on: omrA/pCR-II TOPO/TOP10 E. coli cells
# Procedure: Survival rates of E. coli strains with and without the omrA-plasmid were determined. […] For this experiment, the omrA gene was inserted into the expression plasmid pCR-Blunt II-TOPO (invitrogen, Carlsbad, Calif.) hosted by the TOP10 E. coli strain [F-mcrA Δ (mcr-hsdRMS-mcrBC) Φ)80lacZ ΔM15 ΔlacX74 recA1 deoR araD139 Δ (ara-leu)7697 galU galK rpsL (Str^R) endA1 nupG]. The plasmid with no insertion was used as a control. Flasks (50 ml) containing 10 ml of LB broth with 50 μg/ml kanamycin were inoculated with 100 μl of bacterial cells grown overnight at 37° C. in the same medium and incubated at 37° C. with aeration (200 rpm) for 4 hours. Bacterial growth was stopped by adding chloramphenicol (100 μg/ml) and optical density of cell cultures measured spectrophotometrically at 600 nm.
substance,measurement,setting,value
butanol,"Growth inhibition, Mutant",[1]; butanol 0.3 % (v/v),0
same,"Growth inhibition, Mutant",[1]; butanol 0.6 % (v/v),0
same,"Growth inhibition, Mutant",[1]; butanol 0.9 % (v/v),0
same,"Growth inhibition, Mutant",[1]; butanol 1.2 % (v/v),23.2
same,"Growth inhibition, Mutant",[1]; butanol 1.5 % (v/v),73.8
same,"Growth inhibition, Mutant",[1]; butanol 1.8 % (v/v),84.2
same,"Growth inhibition, WT",[2]; butanol 0.3 % (v/v),8.4
same,"Growth inhibition, WT",[2]; butanol 0.6 % (v/v),40.4
same,"Growth inhibition, WT",[2]; butanol 0.9 % (v/v),56.1
same,"Growth inhibition, WT",[2]; butanol 1.2 % (v/v),89.7
same,"Growth inhibition, WT",[2]; butanol 1.5 % (v/v),94.2
same,"Growth inhibition, WT",[2]; butanol 1.8 % (v/v),99.5
same,resistance to butanol compared with E. coli TOPO10 host cells,[3]; FIG. 2,slightly more resistant
same,bacterial survival in presence of butanol compared with host strain with no omrA gene,"[3]; FIG. 3, varying levels of butanol",increased bacterial survival significantly
